One data set deals with P. falciparum 3D7 strain. Kind of data set: P. falciparum growth inhibition assay (3D7 strain). Format: cell-based, Plasmodium falciparum. The method, then:
After the synchronization process, a new culture at 1.5% parasitemia and 2% hematocrit was established and 150 μL aliquots of it were transferred to 96-well plates.
The required amounts of peptides, antimalarial compounds and dyes were added in each well at different concentrations and in triplicates. A positive growth control of untreated parasites and a negative growth control of parasites treated with a lethal dose of chloroquine (1 μM) were also included.
Parasites were grown for 48 h, a complete replication cycle, in standard culturing conditions (5% O2, 5% CO2, and 90% N2 at 37° C.). After the incubation period, 3 μL of culture from each well were mixed with 197 μL of PBS containing 0.1 μM Syto 11 (Thermo Fisher Scientific Inc), to obtain a final concentration of ca. 1-10×10^6 cells/ml.
Parasitemia was assessed by flow cytometry using a LSRFortessa flow cytometer (BD Biosciences, San Jose, CA, USA) set up with the 4 lasers, 20 parameters standard configuration. The single-cell population was selected on a forward-side scatter scattergram.
Growth inhibition was calculated taking as reference values both the growth rate of the untreated culture and the growth rate of the culture treated with chloroquine.

Data set [1] relates to human umbilical vein endothelial cell cultures. As to the kind of experiment: Cytotoxicity (CC50) and in vitro therapeutic index. The data set is classed as cell-based. Particulars: 50% cytotoxic concentration (CC50)/IC50 in 3D7 strain.
The mark [2] stands for this setting: Plasmodium falciparum, 3D7 strain, Example 8, read-out: IC50 in 3D7 strain.

Like-named read-outs stand apart in the source and are kept apart here. Some results are limits rather than exact numbers.

With `CCN(CC)c1ccc(/C=C/c2cc[n+](CCCCCCCCCC[n+]3ccc(/C=C/c4ccc(N(CC)CC)cc4)c(Cl)c3)cc2Cl)cc1.[Br-].[Br-]` [PRC-50, 1,1′-(decane-1,10-diyl)bis{3-chloro-4-[(E)-4-(diethylamino)styryl]pyridin-1-ium} dibromide], the “antimalarial / antiplasmodial activity in vitro” value with P. falciparum 3D7 strain (3D7 strain) is reported as “potent antimalarial activity”. Moreover, in the data set with P. falciparum 3D7 strain (setting [2]), the IC50 was 0.1 µM.

Turning to `Cc1ccc2c(c1)sc(-c1ccc(N(C)C)cc1)[n+]2C.[Cl-]` [ThT, Thioflavin T, reference compound], the “antimalarial / antiplasmodial activity in vitro” value in the data set with P. falciparum 3D7 strain (3D7 strain) was “did not exhibit significant antiplasmodial activity”. The IC50 in the data set on P. falciparum 3D7 strain (Plasmodium falciparum, 3D7 strain, 48 h, Table 2, read-out: IC50 in 3D7 strain (μM) ± SEM) is 1.57 ± 0.23 µM.

With `Nc1c(/N=N/c2ccc(-c3ccc(/N=N/c4cc(S(=O)(=O)[O-])c5ccccc5c4N)cc3)cc2)cc(S(=O)(=O)[O-])c2ccccc12.[Na+].[Na+]` [Congo Red, reference compound], the “antimalarial / antiplasmodial activity in vitro” value with P. falciparum 3D7 strain (3D7 strain) is on record as “did not exhibit significant antiplasmodial activity”. Also, the IC50 in the data set on P. falciparum 3D7 strain (3D7 strain, 48 h, Table 2, read-out: IC50 in 3D7 strain (μM) ± SEM) is above 15 µM.

As for `CCN(CC)c1ccc(/C=C/c2cc[n+](CCCCCCCCCCC[n+]3ccc(/C=C/c4ccc(N(CC)CC)cc4)c(C)c3)cc2C)cc1.[Br-].[Br-]` [PRC-14, 1,1′-(undecane-1,11-diyl)bis{4-[(E)-4-(diethylamino)styryl]-3-methylpyridin-1-ium} dibromide], the “antimalarial / antiplasmodial activity in vitro” value in the data set with P. falciparum 3D7 strain (3D7 strain) was “potent antimalarial activity”. Further, the IC50 in the data set with P. falciparum 3D7 strain (setting [2]) turned out to be 0.06 µM.

With `CCN(CC)c1ccc(/C=C/c2cc[n+](CCCC[n+]3ccc(/C=C/c4ccc(N(CC)CC)cc4)c(C)c3)cc2C)cc1` [PRC-5, 1,1′-(butane-1,4-diyl)bis{4-[(E)-4-(diethylamino)styryl]-3-methylpyridin-1-ium} dibromide], in the data set on P. falciparum 3D7 strain (setting [2]), the IC50 was determined as 0.42 µM.

For `Cc1c[n+](CCCCCCCCCC[n+]2ccc(/C=C/c3ccc(N(C)CCC#N)cc3)c(C)c2)ccc1/C=C/c1ccc(N(C)CCC#N)cc1.[Br-].[Br-]` [EMA359, 1,1′-(decane-1,10-diyl)bis{4-{(E)-4-[(2-cyanoethyl)methylamino]styryl}-3-methylpyridin-1-ium} dibromide], in the data set with P. falciparum 3D7 strain (3D7 strain), the “antimalarial / antiplasmodial activity in vitro” value is listed as “potent antimalarial activity”. Moreover, the IC50 in the data set on P. falciparum 3D7 strain (setting [2]) was determined as 0.11 µM.

For `CCN(CC)c1ccc(/C=C/c2cc[n+](CCCCCCCCC[n+]3ccc(/C=C/c4ccc(N(CC)CC)cc4)c(C)c3)cc2C)cc1.[Br-].[Br-]` [PRC-25, 1,1′-(nonane-1,9-diyl)bis{4-[(E)-4-(diethylamino)styryl]-3-methylpyridin-1-ium} dibromide], the “antimalarial / antiplasmodial activity in vitro” value in the data set on P. falciparum 3D7 strain (3D7 strain) is recorded as “potent antimalarial activity”. Also, the IC50 in the data set on P. falciparum 3D7 strain (setting [2]) came to 0.05 µM; in the data set on P. falciparum 3D7 strain (Plasmodium falciparum, 3D7 strain, read-out: IC50 in P. falciparum in vitro cultures) it was 0.047 µM.

In the case of `O=C(NCNc1c2c(nc3cc(Cl)ccc13)CCCC2)c1ccc2nc(-c3ccc(Cl)cc3)c3c(c2c1)NCCC3` [DP128, reference compound], the IC50 in the data set with P. falciparum 3D7 strain (Plasmodium falciparum, 3D7, 48 h, read-out: IC50 in 3D7 strain (μM) ± SEM) is 0.65 ± 0.14 µM. In data set [1], the “Therapeutic index in vitro” value came to 75.4.

Turning to `Cc1c[n+](CCCCCCCCCC[n+]2ccc(/C=C/c3ccc(N(C)C)cc3)c(C)c2)ccc1/C=C/c1ccc(N(C)C)cc1.[Br-].[Br-]` [EMA357, 1,1′-(decane-1,10-diyl)bis{4-[(E)-4-(dimethylamino)styryl]-3-methylpyridin-1-ium} dibromide], the “antimalarial / antiplasmodial activity in vitro” value with P. falciparum 3D7 strain (3D7 strain) is “potent antimalarial activity”. In the data set with P. falciparum 3D7 strain (setting [2]), the IC50 was found to be 0.12 µM.

As for `CCN(CC)c1ccc(/C=C/c2cc[n+](CCCCCCCC[n+]3ccc(/C=C/c4ccc(N(CC)CC)cc4)c(C)c3)cc2C)cc1.[Br-].[Br-]` [PRC-8, 1,1′-(octane-1,8-diyl)bis{4-[(E)-4-(diethylamino)styryl]-3-methylpyridin-1-ium} dibromide], the “antimalarial / antiplasmodial activity in vitro” value with P. falciparum 3D7 strain (3D7 strain) is recorded as “potent antimalarial activity”. In addition, the IC50 with P. falciparum 3D7 strain (setting [2]) is 0.14 µM.

In the case of `Cc1c[n+](CCCCCCCCCC[n+]2ccc(/C=C/c3ccc(N4CCOCC4)cc3)c(C)c2)ccc1/C=C/c1ccc(N2CCOCC2)cc1.[Br-].[Br-]` [EMA377, 1,1′-(decane-1,10-diyl)bis{3-methyl-4-[(E)-4-morpholinostyryl]pyridin-1-ium} dibromide], the “antimalarial / antiplasmodial activity in vitro” value in the data set with P. falciparum 3D7 strain (3D7 strain) was “potent antimalarial activity”. In the data set on P. falciparum 3D7 strain (setting [2]), the IC50 was 0.06 µM.

Take `Cc1c[n+](CCCCCCCCCC[n+]2ccc(/C=C/c3ccc(N(c4ccccc4)c4ccccc4)cc3)c(C)c2)ccc1/C=C/c1ccc(N(c2ccccc2)c2ccccc2)cc1` [EMA366, 1,1′-(decane-1,10-diyl)bis{4-[(E)-4-(diphenylamino)styryl]-3-methylpyridin-1-ium} dibromide]: the IC50 with P. falciparum 3D7 strain (setting [2]) turned out to be 0.52 µM.

For the compound `CCN(CC)c1ccc(/C=C/c2cc[n+](CCCCCCCCCC[n+]3ccc(/C=C/c4ccc(N(CC)CC)cc4)cc3)cc2)cc1.[Br-].[Br-]` [PRC-39, 1,1′-(decane-1,10-diyl)bis{4-[(E)-4-(diethylamino)styryl]pyridin-1-ium} dibromide], the “antimalarial / antiplasmodial activity in vitro” value in the data set on P. falciparum 3D7 strain (3D7 strain) is listed as “potent antimalarial activity”. In addition, in the data set on P. falciparum 3D7 strain (setting [2]), the IC50 turned out to be 0.15 µM.

`CCN(CC)c1ccc(/C=C/c2cc[n+](CCOCCOCCOCC[n+]3ccc(/C=C/c4ccc(N(CC)CC)cc4)c(C)c3)cc2C)cc1` [PRC-28, 1,1′-(3,6,9-trioxaundecane-1,11-diyl)bis{4-[(E)-4-(diethylamino)styryl]-3-methylpyridin-1-ium} dichloride]: the IC50 in the data set with P. falciparum 3D7 strain (setting [2]) stood at 0.25 µM.

For `CCN(CC)c1ccc(/C=C/c2cc[n+](Cc3cccc(C[n+]4ccc(/C=C/c5ccc(N(CC)CC)cc5)c(C)c4)c3)cc2C)cc1` [PRC-31, 1,1′-[1,3-phenylenebis(methylene)]bis{4-[(E)-4-(diethylamino)styryl]-3-methylpyridin-1-ium} dibromide], the half-inhibitory concentration (IC50) in the data set on P. falciparum 3D7 strain (setting [2]) was determined as 0.54 µM.

As to `CCN(CC)c1ccc(/C=C/c2cc[n+](CCCCCCCCCC[n+]3ccc(/C=C/c4ccc(N(CC)CC)cc4)c(Br)c3)cc2Br)cc1.[Br-].[Br-]` [PRC-42, 1,1′-(decane-1,10-diyl)bis{3-bromo-4-[(E)-4-(diethylamino)styryl]pyridin-1-ium} dibromide], the “antimalarial / antiplasmodial activity in vitro” value with P. falciparum 3D7 strain (3D7 strain) is on record as “potent antimalarial activity”. The IC50 in the data set with P. falciparum 3D7 strain (setting [2]) was 0.1 µM.

Regarding `CCN(CC)c1ccc(/C=C/c2cc[n+](CCOCCOCC[n+]3ccc(/C=C/c4ccc(N(CC)CC)cc4)c(C)c3)cc2C)cc1` [PRC-20, 1,1′-(3,6-dioxaoctane-1,8-diyl)bis{4-[(E)-4-(diethylamino)styryl]-3-methylpyridin-1-ium} diiodide], the IC50 in the data set with P. falciparum 3D7 strain (setting [2]) came to 0.2 µM.

In the case of `CCN(CC)c1ccc(/C=C/c2cc[n+](Cc3ccc(C[n+]4ccc(/C=C/c5ccc(N(CC)CC)cc5)c(C)c4)cc3)cc2C)cc1` [PRC-29, 1,1′-[1,4-phenylenebis(methylene)]bis{4-[(E)-4-(diethylamino)styryl]-3-methylpyridin-1-ium} dibromide], in the data set with P. falciparum 3D7 strain (setting [2]), the IC50 is 0.46 µM.

`Cc1c[n+](CCCCCCCCCC[n+]2ccc(/C=C/c3ccc(N4CCCC4)cc3)c(C)c2)ccc1/C=C/c1ccc(N2CCCC2)cc1` [EMA368, 1,1′-(decane-1,10-diyl)bis{3-methyl-4-[(E)-4-(pyrrolidin-1-yl)styryl]pyridin-1-ium} dibromide]: in the data set on P. falciparum 3D7 strain (setting [2]), the IC50 came out at 0.29 µM.

As to `CCN(CC)c1ccc(/C=C/c2cc[n+](CCCCCCCCCCCC[n+]3ccc(/C=C/c4ccc(N(CC)CC)cc4)c(C)c3)cc2C)cc1.[Br-].[Br-]` [PRC-15, 1,1′-(dodecane-1,12-diyl)bis{4-[(E)-4-(diethylamino)styryl]-3-methylpyridin-1-ium} dibromide], the “antimalarial / antiplasmodial activity in vitro” value with P. falciparum 3D7 strain (3D7 strain) is listed as “potent antimalarial activity”. Besides, the IC50 in the data set on P. falciparum 3D7 strain (setting [2]) worked out at 0.06 µM.

As a reminder, the IC50 is the concentration that gives 50% inhibition.
